row,SMILES,melting point [°C]
1,CC(=O)Nc1c(C(=O)c2ccc(Cl)c(Cl)c2)[nH]c2cc(Cl)ccc12,169 to 171
2,Cc1cc(C#N)c(S(C)(=O)=O)cc1C(=O)O,248 to 249
3,CC(=O)C(CCCc1ccccc1)n1ncc2c(=O)[nH]c(Cc3ccc(-c4cccnc4)cc3)nc21 (stereo not drawn),108
4,O=[N+]([O-])c1ccc2[nH]cc(C3=CCNCC3F)c2c1 (stereo not drawn),205 to 207
5,Oc1ccccc1NC(=S)NCc1ccncc1,180
6,CC(C)(C)c1ncc(Br)cn1,50 to 51
7,Cc1sc2c(c1C)C(c1ccc(Cl)cc1)=NC(N)c1nnc(C)n1-2 (stereo not drawn),192 to 197
8,COC(=O)C(c1ccccc1)c1cn[nH]c1 (racemic),100 to 103
9,COC(=O)CCCc1cc2nc(Cl)ccc2n1S(=O)(=O)c1cccc(N(C)C)c1,96 to 97
10,CN1CCc2c(Cl)ccc(CO)c2CC1,136 to 140
11,C=CON=C(C(=O)OCC)c1csc(NC(c2ccccc2)(c2ccccc2)c2ccccc2)n1,114
12,Nc1nc(C(F)(F)F)c(-c2ccncc2)cc1C(=O)O,> 283
13,CC(C)(C)OC(=O)[C@H](NS(=O)(=O)c1ccc2c(Cl)cnc(Cl)c2c1)C(C)(C)C,140 to 142
14,CC(C)(C)c1ccc(S(=O)(=O)Nc2nc(Cl)ncc2Oc2ccccc2Cl)cc1,186 to 187
15,CC(=O)Nc1ccc(OCC(O)CCCl)cc1 (stereo not drawn),124 to 127
16,CCOC(=O)[C@H](CCc1ccccc1)N[C@@H](C)C(=O)N1N=C(c2ccc(SC)cc2)S[C@H]1C(=O)O,163 to 164
17,CCc1c(-c2ccc(O)cc2)c2c(C(=O)N(C)CCN(C)C)cc3cc(OC)cc1n32,190 to 200
18,N#CC1(Nc2ccc(Cl)c(Cl)c2)CCN(C(=O)c2cc(C(F)(F)F)cc(C(F)(F)F)c2)CC1,195 to 197
19,COc1ccc(C(=O)NC(Cc2ccccc2)C(=O)NC(Cc2ccc(O)cc2)C(=O)O)cc1 (stereo not drawn),198 to 200
20,COc1ccc(-c2ccc(C)nc2-c2ccc(O)cc2)cc1,190

row,SMILES,melting point [°C]
1,Cc1nn(-c2ccc(C(F)(F)F)cn2)cc1COc1ccc(OC(C)(C)C(=O)O)cc1,106 to 107
2,CCOC(=O)Nc1c(Cl)cc2nc(O)c(O)nc2c1[N+](=O)[O-],> 300
3,CSC(=NC#N)NCCSc1ncccc1C(=O)c1ccccc1,180 to 181
4,COc1ccc(C2(CCN3CCC(C(=O)c4nc5ccccc5s4)CC3)CCN(C(=O)c3ccccc3)C2)cc1OC (stereo not drawn),74 to 76
5,COc1ccc(-c2cn(C)cc(-c3cccc(C(F)(F)F)c3)c2=O)cc1OC,148 to 150
6,O=C(Nc1ccc(S(=O)(=O)c2ccc([N+](=O)[O-])cc2)cc1)N[C@@H](Cc1ccc(NC(=O)c2c(Cl)cccc2Cl)cc1)C(=O)O,223
7,COC(=O)C(c1ccccc1)C(c1ccc(OC)cc1)n1cncn1 (stereo not drawn),159 to 161
8,O=c1ccc(-c2ccc(CCCO)cc2)cn1Cc1ccc(Cl)cc1,165
9,C#CC1(O)C(C)CC2(CC1(C)C)OC(C)C(C)O2 (stereo not drawn),79 to 83
10,CN(C)C(=O)/C=C/c1cnc2c(NC(=O)c3c(Cl)cccc3Cl)cccc2c1,241 to 242
11,CCOc1nc(O)nn1CC,64 to 67
12,CCOc1ccc(-c2ccc(Cl)cc2)cc1C=O,88 to 90
13,Cc1nn(-c2ccc(C(F)(F)F)cn2)cc1COc1cc(CCC(=O)O)n(C)n1,154 to 155
14,O=C(O)c1cc(Cl)cc(I)c1O,160 to 163
15,c1csc(-c2nc3cc(COc4ccc(CCCCn5ccnc5)cc4)ccc3o2)c1,130 to 131
16,CSC(=C[N+](=O)[O-])NCCSCc1ccsn1,64.5 to 65.5
17,COCOc1ccccc1-c1cc(-c2cccc(C(=O)OC)c2)c(C#N)c(N)n1,129 to 130
18,O=c1[nH]c2cc(Cl)ccc2n1CCCO,149
19,CCCOc1ccccc1-c1nc2nnc(OC)nc2c(=O)[nH]1,221 to 222
20,Cc1ccccc1NS(=O)(=O)c1cc(S(=O)(=O)Nc2ccccc2C)c2ccccc2c1O,220 to 222

row,SMILES,melting point [°C]
1,Cc1cc(C(O)(C(F)(F)F)C(F)(F)F)cc(C)c1NCCO,110 to 113
2,COc1cc(OCCCN2CCOCC2)c(C=CC(=O)c2ccc(C(N)=O)cc2)cc1-c1cccs1,81 to 83
3,CC(C)(C(=O)O)n1c(=O)[nH]c2cc(F)c(F)cc2c1=O,242 to 244
4,N#Cc1cc(-c2cccs2)[nH]c1-c1cccs1,202 to 204
5,O=C1NC(=O)C(Cc2ccc(OCCN3C(=O)c4ccccc4C3=O)cc2)S1 (stereo not drawn),192 to 194
6,CCC1(CC)c2cc(CO)c(CO)cc2C(CC)(CC)N1Cc1ccccc1,155 to 158
7,CCOC(=O)Cn1c(-c2ccc(Br)cc2)nc2cccnc21,138 to 139
8,Cc1nc(CCn2cnc3c2c(=O)n(C)c(=O)n3C)no1,112 to 114
9,Cc1cccc(NC(=O)NCC(=O)N(CC(=O)OCC(F)(F)F)c2ccccc2)c1,172
10,CSc1nc(O)c(C#N)n1C(C)C,196 to 198
11,Cc1cc(Cl)cc(C(=O)NC2(C)CC2)c1NC(=O)c1cc(Br)nn1-c1ncccc1Cl,> 250
12,CCOC(=O)CCc1nc(-c2cc3ccccc3o2)cs1,65 to 66
13,O=C(Oc1c(Cl)cc(Cl)c(Cl)c1Cl)c1ccc(CCl)cc1,143 to 149
14,C=CCN(C(=O)Nc1cc(C)c(S(=O)(=O)C[N+](=O)[O-])c(C)c1)c1ccccc1,164 to 165
15,CC(C)(O)CON1C(C)(C)CC(OC(=O)c2ccc3nn(-c4cc(C(C)(C)C)cc(C(C)(C)c5ccc(Cl)cc5)c4O)nc3c2)CC1(C)C,80 to 90
16,COc1nc(SC)nc(Cl)c1C(=O)NCc1ncccn1,176 to 177
17,COc1c(C)cnc(Cn2cc(C#CCCCN3CCN(C)CC3)c3c(Cl)nc(N)nc32)c1C,160 to 162
18,COc1c(F)cc2c(=O)c(C(=O)O)cn(-c3cc(N)c(F)cc3F)c2c1C,> 280
19,COC(=O)N(C)CCc1ccc(N)c(CS(=O)(=O)c2ccccc2)c1,95 to 96

# Further lines, results first:
row,melting point [°C],SMILES
1,178,CC12CCCC1C1CCc3cc(F)ccc3C1CC2 (stereo not drawn)
2,150 to 152,Cn1c(=O)cnn(-c2cc(N)c(Cl)cc2F)c1=O
3,231 to 234,CC(C)(NC(=O)C1=C(C(=O)Nc2cc(OC3CCCC3)c(Cl)cc2F)CCCC1)c1cccc(F)c1
4,69 to 70,Cc1cc(C)n2nc(SCc3ccccc3)nc2c1
5,189 to 190,COC(=O)C1=C(C)NC(C)=C(C(=O)OCCN2CCN(c3cccc(Cl)c3Cl)CC2)C1c1cccc([N+](=O)[O-])c1 (stereo not drawn)
6,206,Cc1ccc(N2C(=O)N(CC(=O)O)C(=O)C23CCCCC3)cc1
7,100 to 102,O=C(Cc1ccccc1)N[C@@H]1C(=O)N2C(C(=O)O)=C(OS(=O)(=O)C(F)(F)F)NC[C@H]12 (racemic)
8,167 to 170,Cc1cc2cc(CN3CCCC3)cnc2cc1NC(=O)c1ccc(-c2ccccc2)c(F)c1
9,145 to 146,FC(F)(F)c1cccc(CNc2ncnc3ccccc23)c1
10,166 to 167,COc1ccccc1S(=O)(=O)N(C)c1cccc2cc(C3=NCC(CC(=O)N4CCC(O)CC4)S3)[nH]c12 (stereo not drawn)
11,123 to 125,CC(C)c1ccc(N(Cc2ccc(N(C)C)cc2)C(=O)C2CCCc3ccc(C(C)C)cc32)cc1 (stereo not drawn)
12,72 to 75,C#CCOc1cc(N2C(=O)C3CCCCN3C2C(=O)OCC)c(F)cc1Cl (stereo not drawn)
13,181 to 182,O=C(Nc1ccc2c(c1)CS(=O)(=O)N2)C(=O)N1CCC(Cc2ccccc2)CC1
14,168 to 169,NC(=O)c1ncn(C2OC(CO)C(O)C2O)c1C#Cc1ccccc1 (stereo not drawn)
15,159 to 161,CC(C)OC(=O)N1CC(=O)Nc2ccc(Br)cc21
16,220 to 221,COc1cc2c(cc1OC)-c1c([N+](=O)[O-])sc(=N)n1CC2
17,218,Cc1ccc(C(=O)c2ccc(O)c(CC(=O)O)c2)cc1
18,180 to 182,CC12CC(N3CCC4(CC3)OCCO4)C(O)CC1CCC1C2CCC2(C)C(O)C(N3CCC4(CC3)OCCO4)CC12 (stereo not drawn)
19,190 to 193,O=C1c2ccccc2C2(c3ccccc3)N1CCS2(=O)=O (stereo not drawn)
20,121 to 122,CCCN1C(=O)C2(CC)CC(c3ccc([N+](=O)[O-])cc3)(C2)C1=O

row,melting point [°C],SMILES
1,76,CCCCCC1CCc2c3c(c(F)c(F)c2O1)OC(C)C3 (stereo not drawn)
2,133 to 135,COC(=O)C1Cc2ccc([N+](=O)[O-])cc2CN1 (stereo not drawn)
3,123 to 124,NC(=O)Cc1cc(Oc2ccc3c(ccn3C(=O)Nc3ccc(CN4CCCC4)c(C(F)(F)F)c3)c2)ncn1
4,163 to 164,CCOc1ccc2nc(Cl)c(C=O)cc2c1
5,190 to 202,CC12CCC(=O)C=C1NCC1C2CCC2(C)C(C(=S)c3ccccn3)CCC12 (stereo not drawn)
6,120 to 122,Nc1ccc(F)c(C(=O)Nc2ccccc2)c1
7,98 to 101,FC(F)(F)c1cc(CO[C@H]2CCCN(Cc3nsc(I)n3)[C@H]2c2ccccc2)cc(C(F)(F)F)c1
8,206 to 208,CCC1CCc2cc3c(cc2C1)C(=O)c1cccc(OC)c1C3=O (stereo not drawn)
9,76.5 to 78,CNCC1CN(c2ccc3ccccc3c2)C(=O)O1 (stereo not drawn)
10,85 to 87,COc1cc(OC)cc(N2CCN(CCC3CN(C)C(=O)O3)CC2)c1 (stereo not drawn)
11,79 to 80,COC(=O)CCc1cc2cc(F)ccc2n1S(=O)(=O)c1ccccc1
12,162,CC(OCCc1ccc([N+](=O)[O-])cc1)OC1C(O)C(CO)OC1n1ccc(=O)[nH]c1=O (stereo not drawn)
13,167 to 170,O=C(Nc1ccccc1)N1CCC(C2Oc3ccccc3Cn3cccc32)CC1 (stereo not drawn)
14,132 to 134,CCOC(=O)C(CC=C1CCN(c2ccccc2)C1=O)Nc1cc(Cl)ccc1I (stereo not drawn)
15,62 to 65,Cn1cnc2ccnc(Cl)c21
16,186 to 187,COc1cc2c(cc1OC)C1=C(C#N)SCC(=O)N1CC2
17,144 to 146,CCOC(=O)Nc1cc2c(cc1F)nc(C(F)(F)F)n2Cc1cccc(Cl)c1
18,192,Nc1ccc2c(c1)C(c1ccccc1Cl)=CCC(=O)N2
19,103 to 105,CC(C)Sc1ccc(NC(=O)C2(C)CC2)cc1C(F)(F)F
